Assay results as given in the NIST ThermoML archive (doi:10.1016/j.tca.2012.02.005).
Numbers after ± are expanded uncertainties.

Assay: activity coefficient (dimensionless); of the first substance listed, at infinite dilution; xn = mol fraction of the nth substance listed
Conditions: 298.15 K; 101 kPa; Liquid; Chromatography; x1 = 0

| SMILES | activity coefficient |
| --- | --- |
| CCNCC [diethylamine] + CO | 0.33 ± 0.05 |
| CO [methanol] + C1CCNCC1 | 0.43 ± 0.03 |
| CO [methanol] + CC(C)(C)N | 0.29 ± 0.05 |
| CO [methanol] + CCC(C)N | 0.38 ± 0.05 |
| CO [methanol] + CCCCCCN | 0.38 ± 0.05 |
| CO [methanol] + CCCCN | 0.35 ± 0.07 |
| CO [methanol] + CCCNCCC | 0.69 ± 0.05 |
| CO [methanol] + CCNCC | 0.51 ± 0.03 |
| CO [methanol] + Cc1cccc(C)n1 | 0.61 ± 0.1 |
| CO [methanol] + Cc1ccccn1 | 0.79 ± 0.1 |
| CO [methanol] + Cc1cccnc1 | 0.94 ± 0.12 |
| CO [methanol] + Cc1ccncc1 | 0.68 ± 0.1 |
| CO [methanol] + NC1CCCCC1 | 0.33 ± 0.03 |
| c1ccncc1 [pyridine] + CO | 1.2 ± 0.19 |

Now from value to molecule:

| activity coefficient | SMILES |
| --- | --- |
| 0.46 ± 0.07 | CCCCN [1-butanamine] + CO |
| 13.7 ± 2.3 | CCCCCCN [1-hexanamine] + CO |
| 16.2 ± 3.1 | CCCCCCN [1-hexanamine] + c1ccccc1 |
| 0.94 ± 0.07 | Cc1cccc(C)n1 [2,6-dimethylpyridine] + CO |
| 0.75 ± 0.1 | CCC(C)N (centres undefined) [2-butanamine] + CO |
| 1.15 ± 0.17 | CCC(C)N (centres undefined) [2-butanamine] + c1ccccc1 |
| 0.25 ± 0.05 | CC(C)(C)N [2-methyl-2-propanamine] + CO |
| 1.32 ± 0.21 | CC(C)(C)N [2-methyl-2-propanamine] + c1ccccc1 |
| 0.75 ± 0.07 | Cc1ccccn1 [2-methylpyridine] + CO |
| 0.82 ± 0.07 | Cc1cccnc1 [3-methylpyridine] + CO |
| 0.96 ± 0.12 | Cc1cccnc1 [3-methylpyridine] + c1ccccc1 |
| 1 ± 0.12 | Cc1ccncc1 [4-methylpyridine] + CO |
| 4.81 ± 0.47 | NC1CCCCC1 [cyclohexylamine] + CO |
| 6.43 ± 1 | NC1CCCCC1 [cyclohexylamine] + c1ccccc1 |
| 0.91 ± 0.12 | CCCNCCC [dipropylamine] + CO |
| 1.48 ± 0.15 | CCCNCCC [dipropylamine] + c1ccccc1 |
| 1.28 ± 0.1 | CCN(CC)CC [triethylamine] + c1ccccc1 |
| 1.01 | CCCN(CCC)CCC [tripropylamine] + CCCCCCCCCCCCCCCC |
| 8.79 ± 1.6 | CCCN(CCC)CCC [tripropylamine] + CO |
| 2.79 ± 0.62 | CCCN(CCC)CCC [tripropylamine] + c1ccccc1 |
